BindingDB's records for doi:10.1021/cb500177c (University of Bern, 2014)

Experiments:
Cannabinoid receptor 2 = Cannabinoid receptor 2 (Homo sapiens, UniProt P34972); assay: CB1 & 2 Binding Assays; settings: pH 7.4; 30 °C
[1] = biological target: T1, Fatty-acid amide hydrolase 1 (Homo sapiens, UniProt O00519); assay: FAAH Activity Assay; settings: pH 7.6; 37 °C
T1 sequence (O00519 whole entry): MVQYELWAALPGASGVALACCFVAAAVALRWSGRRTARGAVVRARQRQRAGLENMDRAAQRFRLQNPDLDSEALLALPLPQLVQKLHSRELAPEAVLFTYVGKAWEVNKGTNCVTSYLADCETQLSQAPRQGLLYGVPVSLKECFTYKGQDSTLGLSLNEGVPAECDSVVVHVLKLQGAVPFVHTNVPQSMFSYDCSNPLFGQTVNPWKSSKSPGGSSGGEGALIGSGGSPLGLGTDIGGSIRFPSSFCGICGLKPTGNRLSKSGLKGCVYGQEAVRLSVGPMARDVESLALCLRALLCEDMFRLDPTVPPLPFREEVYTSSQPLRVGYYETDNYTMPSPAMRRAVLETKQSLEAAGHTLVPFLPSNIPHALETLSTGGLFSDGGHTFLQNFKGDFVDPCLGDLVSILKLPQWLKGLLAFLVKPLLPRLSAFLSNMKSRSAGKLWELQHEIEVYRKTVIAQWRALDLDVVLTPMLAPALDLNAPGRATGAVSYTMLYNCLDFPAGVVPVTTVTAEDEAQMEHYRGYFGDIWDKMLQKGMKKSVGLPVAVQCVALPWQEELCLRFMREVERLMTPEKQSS
Experimental: In this assay, 0.05 Units of hFAAH was pre-incubated for 30 min at 37 C with 2 uL of 11a, 11b, 11f at different concentrations (0.01 - 100 uM) or vehicin 196 uL of assay buffer (10 mM Tris-HCl, 1 mM EDTA (pH 7.6) and 0.1% w/v fatty acid-free BSA). 2 uL of AEA/[3H]-AEA mixture was added to the solution (final concenttion in assay was 10 nM) and incubated for 15 min at 37 C.

Cannabinoid receptor 1 = Cannabinoid receptor 1 (Homo sapiens, UniProt P21554); assay: CB1 & 2 Binding Assays; settings: pH 7.4; 30 °C
Chain of Cannabinoid receptor 1 (P21554 whole entry): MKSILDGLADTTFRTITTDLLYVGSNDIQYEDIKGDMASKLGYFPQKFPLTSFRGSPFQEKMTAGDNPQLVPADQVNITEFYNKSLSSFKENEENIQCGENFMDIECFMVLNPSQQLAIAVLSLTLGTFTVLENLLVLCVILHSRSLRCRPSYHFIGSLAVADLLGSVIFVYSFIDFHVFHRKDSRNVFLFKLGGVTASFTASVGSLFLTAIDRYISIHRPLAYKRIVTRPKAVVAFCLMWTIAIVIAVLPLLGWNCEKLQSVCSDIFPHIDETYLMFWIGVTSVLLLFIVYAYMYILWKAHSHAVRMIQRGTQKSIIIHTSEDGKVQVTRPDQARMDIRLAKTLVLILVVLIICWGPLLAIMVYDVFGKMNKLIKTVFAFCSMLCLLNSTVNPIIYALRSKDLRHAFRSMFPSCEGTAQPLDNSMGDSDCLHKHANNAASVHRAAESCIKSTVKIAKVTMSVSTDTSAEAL

Chain of Cannabinoid receptor 2 (P34972 whole entry): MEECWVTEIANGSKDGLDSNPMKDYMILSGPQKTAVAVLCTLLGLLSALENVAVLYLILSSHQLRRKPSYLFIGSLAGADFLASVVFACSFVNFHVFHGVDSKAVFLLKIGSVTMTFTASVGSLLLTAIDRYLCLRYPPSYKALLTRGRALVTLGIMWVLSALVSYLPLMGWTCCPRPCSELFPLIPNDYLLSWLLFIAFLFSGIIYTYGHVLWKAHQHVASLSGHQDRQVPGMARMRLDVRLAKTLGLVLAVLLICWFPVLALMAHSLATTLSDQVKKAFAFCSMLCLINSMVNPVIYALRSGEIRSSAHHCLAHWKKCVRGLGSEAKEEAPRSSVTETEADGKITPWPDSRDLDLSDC

Compound	Ki (Cannabinoid receptor 2) [µM]	IC50 [1] [µM]	Ki (Cannabinoid receptor 1) [µM]
CCCC(C)(C)c1ccc2c(c1)OC(C)(C)[C@@H]1CC=C(C)C[C@@H]21	0.013		
C=C(C)CC[C@@H]1[C@H](C(=C)CC/C=C/C(=O)NCc2ccc(O)c(OC)c2)CC1(C)C [(E)-6-((1R,2R)-3,3-Dimethyl-2-(3-methylbut-3-enyl)cyclobutyl)-N-(4-hydroxy-3-methoxybenzyl)hepta-2,6-dienamide (11e)]	> 10	7.1	> 10
C=C(C)CC[C@@H]1[C@H](C(=C)CC/C=C/C(=O)NCCC)CC1(C)C [(E)-6-((1R,2R)-3,3-Dimethyl-2-(3-methylbut-3-enyl)cyclobutyl)-N-propylhepta-2,6-dienamide (11a)]	1.01	6.3	
C=C(C)CC[C@@H]1[C@H](C(=C)CC/C=C/C(=O)NCCCl)CC1(C)C [(E)-N-(2-Chloroethyl)-6-((1R,2R)-3,3-dimethyl-2-(3-methylbut-3-enyl)cyclobutyl)hepta-2,6-dienamide (11c)]	1.43	> 10	
C=C(C)CC[C@@H]1[C@H](C(=C)CC/C=C/C(=O)NCCc2ccc(O)c(O)c2)CC1(C)C [(E)-N-(3,4-Dihydroxyphenethyl)-6-((1R,2R)-3,3-dimethyl-2-(3-methylbut-3-enyl)cyclobutyl)hepta-2,6-dienamide (11f)]	6.5	> 10	> 10
C=CCNC(=O)/C=C/CCC(=C)[C@@H]1CC(C)(C)[C@@H]1CCC(=C)C [(E)-N-Allyl-6-((1R,2R)-3,3-dimethyl-2-(3-methylbut-3-enyl)cyclobutyl)hepta-2,6-dienamide (11b)]	0.68	2.7	
C=C1CC/C=C(\C)CC[C@@H]2[C@H]1CC2(C)C [β-humulene]		> 10	> 10
